These compounds were tested against glucan synthase (GS) prepared from Candida albicans MY1055 (Candida albicans, UniProt O13428) (assay: Glucan synthase inhibition (polymerization assay, 96-well)). Conditions: GS from C. albicans MY1055; 60 min incubation at 22° C.; read-out: Candida Albicans GS IC50 (converted).
Assay type: biochemical
Summary of the method: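 Partially purified glucan synthase from C. albicans MY1055 membranes incorporated 0.5 mM ³H-UDPG with 25 μM GTP-γ-S, HEPES pH 7.5, over 60 min at 22 °C. TCA-precipitated glucan was counted by scintillation. IC50 (ng/mL) came from sigmoidal fits of duplicate 3-fold dilution series.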

glucan synthase (GS) prepared from Candida albicans MY1055, sequence (O13428 1-1897): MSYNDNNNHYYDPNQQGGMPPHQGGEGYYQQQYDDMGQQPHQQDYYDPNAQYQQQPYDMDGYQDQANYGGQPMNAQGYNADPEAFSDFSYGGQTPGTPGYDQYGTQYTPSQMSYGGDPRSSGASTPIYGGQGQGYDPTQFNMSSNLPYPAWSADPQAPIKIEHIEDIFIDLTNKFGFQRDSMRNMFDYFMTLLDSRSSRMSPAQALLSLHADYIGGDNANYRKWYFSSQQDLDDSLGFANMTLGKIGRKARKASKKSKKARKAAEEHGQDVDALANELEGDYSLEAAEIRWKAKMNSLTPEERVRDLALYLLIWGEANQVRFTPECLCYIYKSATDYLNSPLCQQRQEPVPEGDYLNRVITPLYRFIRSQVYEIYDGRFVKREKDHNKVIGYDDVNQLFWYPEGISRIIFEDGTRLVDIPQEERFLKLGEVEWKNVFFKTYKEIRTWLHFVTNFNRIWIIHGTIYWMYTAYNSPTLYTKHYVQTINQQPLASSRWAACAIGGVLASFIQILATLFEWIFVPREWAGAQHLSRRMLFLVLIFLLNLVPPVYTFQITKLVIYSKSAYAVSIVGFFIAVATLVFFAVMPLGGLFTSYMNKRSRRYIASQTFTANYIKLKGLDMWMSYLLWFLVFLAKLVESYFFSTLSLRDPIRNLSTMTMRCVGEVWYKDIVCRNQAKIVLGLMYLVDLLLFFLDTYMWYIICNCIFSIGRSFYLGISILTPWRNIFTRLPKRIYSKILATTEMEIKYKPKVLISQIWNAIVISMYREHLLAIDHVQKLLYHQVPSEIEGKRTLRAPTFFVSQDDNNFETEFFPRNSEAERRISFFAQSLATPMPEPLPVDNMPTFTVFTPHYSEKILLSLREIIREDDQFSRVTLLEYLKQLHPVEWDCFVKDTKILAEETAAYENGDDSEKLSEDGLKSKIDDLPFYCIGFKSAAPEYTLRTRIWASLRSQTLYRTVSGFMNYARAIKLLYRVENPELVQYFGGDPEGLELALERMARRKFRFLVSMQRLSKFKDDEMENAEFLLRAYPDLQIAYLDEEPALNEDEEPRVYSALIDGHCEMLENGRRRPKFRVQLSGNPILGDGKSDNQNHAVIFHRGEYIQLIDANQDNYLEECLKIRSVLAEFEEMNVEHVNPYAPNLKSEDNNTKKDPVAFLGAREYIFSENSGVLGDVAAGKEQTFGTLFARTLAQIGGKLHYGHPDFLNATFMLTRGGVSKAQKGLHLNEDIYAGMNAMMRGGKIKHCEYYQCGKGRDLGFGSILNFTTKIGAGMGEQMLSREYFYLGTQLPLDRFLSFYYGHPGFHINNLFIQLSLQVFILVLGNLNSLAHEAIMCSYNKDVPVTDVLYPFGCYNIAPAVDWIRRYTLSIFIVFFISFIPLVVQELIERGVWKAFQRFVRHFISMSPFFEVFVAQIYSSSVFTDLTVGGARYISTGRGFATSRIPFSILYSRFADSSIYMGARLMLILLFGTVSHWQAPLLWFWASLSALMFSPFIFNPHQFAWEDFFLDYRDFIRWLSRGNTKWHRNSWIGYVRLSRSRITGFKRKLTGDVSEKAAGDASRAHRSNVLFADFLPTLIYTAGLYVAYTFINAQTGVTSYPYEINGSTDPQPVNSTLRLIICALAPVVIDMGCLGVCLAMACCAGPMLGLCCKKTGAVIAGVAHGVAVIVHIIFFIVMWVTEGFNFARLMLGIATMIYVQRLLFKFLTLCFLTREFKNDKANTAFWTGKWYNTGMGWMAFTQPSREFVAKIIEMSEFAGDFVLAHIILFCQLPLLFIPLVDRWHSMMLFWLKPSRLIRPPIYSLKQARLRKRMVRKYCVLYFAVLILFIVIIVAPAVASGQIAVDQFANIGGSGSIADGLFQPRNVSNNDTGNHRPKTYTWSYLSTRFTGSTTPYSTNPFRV

IC50 [nM]	SMILES
61	CC(C)[C@@H](C)[C@@]1(C)CC[C@]2(C)[C@H]3CC[C@@H]4[C@@]5(COC[C@@]4(C)[C@@H](OC[C@](C)(N)C(C)C)[C@H](n4cc(Cl)cn4)C5)C3=CC[C@@]2(C)[C@@H]1C(=O)O [Example 295, (1S,4aR,6aS,7R,8R,10aR,10bR,12aR,14R,15R)-15-[[(2R)-2-amino-2,3-dimethylbutyl]oxy]-14-(4-chloro-1H-pyrazol-1-yl)-8-[(1R)-1,2-dimethylpropyl]-1,6,6a,7,8,9,10,10a,10b,11,12,12a-dodecahydro-1,6a,8,10a-tetramethyl-4H-1,4a-propano-2H-phenanthro[1,2-c]pyran-7-carboxylic acid]
38.1	CCNC(=O)c1ccnn1[C@@H]1C[C@@]23COC[C@](C)([C@@H]2CC[C@H]2C3=CC[C@@]3(C)[C@H](C(=O)O)[C@@](C)([C@H](C)C(C)C)CC[C@]23C)[C@H]1OC[C@](C)(N)C(C)C [Example 298, (1S,4aR,6aS,7R,8R,10aR,10bR,12aR,14R,15R)-15-[[(2R)-2-amino-2,3-dimethylbutyl]oxy]-8-[(1R)-1,2-dimethylpropyl]-14-[5-[(ethylamino)carbonyl]-1H-pyrazol-1-yl]-1,6,6a,7,8,9,10,10a,10b,11,12,12a-dodecahydro-1,6a,8,10a-tetramethyl-4H-1,4a-propano-2H-phenanthro[1,2-c]pyran-7-carboxylic acid]
675	CCOC(=O)c1nccn1[C@@H]1C[C@@]23COC[C@](C)([C@@H]2CC[C@H]2C3=CC[C@@]3(C)[C@H](C(=O)O)[C@@](C)([C@H](C)C(C)C)CC[C@]23C)[C@H]1OC[C@](C)(N)C(C)C [Example 300, (1S,4aR,6aS,7R,8R,10aR,10bR,12aR,14R,15R)-15-[[(2R)-2-amino-2,3-dimethylbutyl]oxy]-8-[(1R)-1,2-dimethylpropyl]-14-[2-(ethoxycarbonyl)-1H-imidazol-1-yl]-1,6,6a,7,8,9,10,10a,10b,11,12,12a-dodecahydro-1,6a,8,10a-tetramethyl-4H-1,4a-propano-2H-phenanthro[1,2-c]pyran-7-carboxylic acid]
5.6	CC(C)[C@@H](C)[C@@]1(C)CC[C@]2(C)[C@H]3CC[C@@H]4[C@@]5(COC[C@@]4(C)[C@@H](OC[C@@]4(C)CCCN4)[C@H](n4ncnc4-c4ccncc4)C5)C3=CC[C@@]2(C)[C@@H]1C(=O)O [Example 307, (1S,4aR,6aS,7R,8R,10aR,10bR,12aR,14R,15R)-8-[(1R)-1,2-dimethylpropyl]-15-[[(2R)-2-methyl-2-pyrrolidinyl]methoxy]-14-[5-(4-pyridinyl)-1H-1,2,4-triazol-1-yl]-1,6,6a,7,8,9,10,10a,10b,11,12,12a-dodecahydro-1,6a,8,10a-tetramethyl-4H-1,4a-propano-2H-phenanthro[1,2-c]pyran-7-carboxylic acid]
17.8	CN[C@@](C)(CO[C@H]1[C@H](n2nccc2-c2ccncc2)C[C@@]23COC[C@]1(C)[C@@H]2CC[C@H]1C3=CC[C@@]2(C)[C@H](C(=O)O)[C@@](C)([C@H](C)C(C)C)CC[C@]12C)C(C)C [Example 312, (1S,4aR,6aS,7R,8R,10aR,10bR,12aR,14R,15R)-15-[[(2R)-2,3-dimethyl-2-(methylamino)butyl]oxy]-8-[(1R)-1,2-dimethylpropyl]-14-[5-(4-pyridinyl)-1H-pyrazol-1-yl]-1,6,6a,7,8,9,10,10a,10b,11,12,12a-dodecahydro-1,6a,8,10a-tetramethyl-4H-1,4a-propano-2H-phenanthro[1,2-c]pyran-7-carboxylic acid]

Reference: US8188085B2, “Antifungal agents” (Merck Sharp & Dohme Corp., priority 2008, dated 2012)
